What was measured:
Type in all cases: ADME, organism-based
[1] = Ratio of unbound fraction in CD1 mouse brain to plasma at 25 mg/kg, po after 6 hrs by LC-MS/MS analysis; settings: read-out: K(p,uu,brain)
[2] = Ratio of unbound fraction in CD1 mouse brain to plasma at 50 mg/kg, po after 6 hrs by LC-MS/MS analysis; settings: read-out: K(p,uu,brain)
[3] = AUC in CD1 mouse at 25 mg/kg, po; settings: in vivo
Brain [4] = experiment: Unbound fraction in CD1 mouse brain at 25 mg/kg, po administered as single dose measured at 6 hrs post dose by LC-MS/MS analysis; settings: in vivo
Brain [5] = experiment: Unbound fraction in CD1 mouse brain at 25 mg/kg, po administered as single dose measured at 1 hr post dose by LC-MS/MS analysis; settings: in vivo

COC(C)(C)c1cc2nc(-c3cnc(N)nc3)nc(N3CCOCC3)c2s1
Kp uu at 6 h [1]: 0.4

COC1(c2sc3c(N4CCOCC4)nc(-c4cnc(N)nc4)nc3c2C)COC1
Kp uu at 6 h [2]: 0.4

CC1(C)OCCn2c1nc1c(N3CCOCC3)nc(-c3cnc(N)nc3)nc12 [PAXALISIB]
AUC [3]: 47 µM·h | Drug uptake(free) (Brain [4]): 0.16 µM | Drug uptake(free) (Brain [5]): 0.32 µM

Reference: ChEMBL document CHEMBL3813614 (ACS Med Chem Lett, 2016)
